Like-named read-outs stand apart in the source and are kept apart here. Numbered stars: 1 amine (or outer) side, 2 acyl side, 3 side chain; on linkers, the order of the positions; unused ones are H or OH. Bridge positions count the residues as written; N and C are the ends. Square brackets hold non-standard residues; d marks the D form. Peptide text beside a SMILES is read from it. ξ: configuration not given here. X3 = O=C(/C=N/OCCCCCCOc1cc(C[*:2])cc(C[*:3])c1)[*:1]; X9 = NC(=O)[C@H](CS[*:1])CC(=O)[C@H](CCC(=O)O)N[*:2]; X1 = O=C(C=NOCCCCCCOc1cc(C[*:2])cc(C[*:3])c1)[*:1]; X5 = O=C(CCCCCCOc1cc(C[*:2])cc(C[*:3])c1)[*:1]; tBuAla = CC(C)(C)C[C@H](N)C(=O)O; Thr(3ξ) = CC(O)[C@H](N)C(=O)O; hSer = N[C@@H](CCO)C(=O)O; Nle = CCCC[C@H](N)C(=O)O
Target: T1, rh-integrin α4β7/LPAM-1 (Homo sapiens, UniProt P13612+P26010)
T1 sequence (P13612 34-977 limits assumed): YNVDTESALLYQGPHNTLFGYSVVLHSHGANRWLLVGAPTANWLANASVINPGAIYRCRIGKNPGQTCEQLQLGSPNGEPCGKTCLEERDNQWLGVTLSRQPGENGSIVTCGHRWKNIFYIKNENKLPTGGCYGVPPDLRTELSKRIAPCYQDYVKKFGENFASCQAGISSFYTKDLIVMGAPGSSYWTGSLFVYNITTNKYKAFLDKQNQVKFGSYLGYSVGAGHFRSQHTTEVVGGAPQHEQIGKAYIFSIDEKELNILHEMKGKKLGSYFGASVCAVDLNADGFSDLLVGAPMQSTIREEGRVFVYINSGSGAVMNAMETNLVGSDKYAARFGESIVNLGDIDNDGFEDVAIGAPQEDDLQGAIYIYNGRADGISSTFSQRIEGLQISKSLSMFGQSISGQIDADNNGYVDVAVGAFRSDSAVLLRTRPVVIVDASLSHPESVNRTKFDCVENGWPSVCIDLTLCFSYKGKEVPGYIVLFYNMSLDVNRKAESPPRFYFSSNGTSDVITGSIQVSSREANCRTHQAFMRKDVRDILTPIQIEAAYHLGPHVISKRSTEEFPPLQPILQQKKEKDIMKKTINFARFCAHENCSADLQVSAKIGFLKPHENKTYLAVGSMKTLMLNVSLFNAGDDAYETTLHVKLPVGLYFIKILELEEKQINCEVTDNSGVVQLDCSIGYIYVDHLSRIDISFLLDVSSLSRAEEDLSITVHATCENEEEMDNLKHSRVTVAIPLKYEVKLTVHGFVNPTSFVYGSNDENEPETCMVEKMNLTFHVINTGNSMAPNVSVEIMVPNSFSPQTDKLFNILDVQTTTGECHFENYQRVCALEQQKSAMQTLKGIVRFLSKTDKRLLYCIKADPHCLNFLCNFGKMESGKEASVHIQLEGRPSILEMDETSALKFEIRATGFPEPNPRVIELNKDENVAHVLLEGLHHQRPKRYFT
T1 sequence (P26010 20-723 limits assumed): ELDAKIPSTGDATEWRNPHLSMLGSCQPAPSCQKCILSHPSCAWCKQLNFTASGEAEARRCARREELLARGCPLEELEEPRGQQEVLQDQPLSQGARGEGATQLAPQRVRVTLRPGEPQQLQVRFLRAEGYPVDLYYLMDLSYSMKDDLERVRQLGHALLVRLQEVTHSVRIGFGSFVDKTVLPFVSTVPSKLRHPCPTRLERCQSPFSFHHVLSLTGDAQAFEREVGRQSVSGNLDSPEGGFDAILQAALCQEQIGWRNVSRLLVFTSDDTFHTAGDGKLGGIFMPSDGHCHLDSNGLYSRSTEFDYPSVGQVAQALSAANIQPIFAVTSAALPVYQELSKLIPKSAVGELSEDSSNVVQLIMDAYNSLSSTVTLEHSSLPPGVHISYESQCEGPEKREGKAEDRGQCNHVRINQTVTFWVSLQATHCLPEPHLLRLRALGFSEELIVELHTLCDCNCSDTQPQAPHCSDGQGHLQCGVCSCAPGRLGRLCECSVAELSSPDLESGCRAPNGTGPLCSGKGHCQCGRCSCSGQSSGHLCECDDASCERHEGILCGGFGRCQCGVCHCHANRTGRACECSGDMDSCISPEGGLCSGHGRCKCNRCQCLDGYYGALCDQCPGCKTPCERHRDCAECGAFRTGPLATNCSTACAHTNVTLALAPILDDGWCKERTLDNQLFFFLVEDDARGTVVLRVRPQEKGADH
Experiment: α4β7-MadCAM Competition ELISA (Example 4)
Type: binding
Details: read-out: IC50
Protocol: After washing with wash buffer, 200 μL assay buffer was added to each well and incubated for one hour at 28° C. After another wash with wash buffer, 100 μL of a MAdCAM and peptide mixture in assay buffer was added to each well and incubated for one hour at 28° C., followed by washing with wash buffer.

[1] = Table 3 Representative compounds, inhibition of MAdCAM binding to coated α4β7
[2] = competition ELISA, 4 μg/mL α4β7 coated, MAdCAM and peptide mixture, 28° C.

Compound	IC50 [1] [µM]	IC50 [2] [µM]
C[C@@H](O)[C@@H]1NC(=O)[C@H](CC(=O)O)NC(=O)[C@@H]2CCCN2C(=O)[C@H](Cc2c[nH]c3ccccc23)NC(=O)[C@@H]2CSCc3cc(cc(c3)OCCCCCCO/N=C/C(=O)N[C@@H](CC(=O)O)C(=O)N2)CSC[C@H](C(N)=O)NC(=O)[C@H](Cc2cnc[nH]2)NC(=O)[C@H](Cc2ccc(O)cc2)NC1=O [compound 95, TSL6- SDCWPDTYHC] (DCWPDTYH[dC]-NH2; linker N-2-9 via X3)	114	
CCCC[C@@H]1NC(=O)[C@H](CO)NC(=O)[C@@H]2CSSC[C@@H](C(=O)N[C@@H](Cc3c[nH]c4ccccc34)C(=O)N[C@@H](CCC(N)=O)C(N)=O)NC(=O)[C@H](C(C)C)NC(=O)[C@@H](CC(=O)O)NC(=O)[C@H](CC(C)C)NC(=O)[C@H](CO)NC(=O)[C@H](CCCNC(=N)N)NC(=O)[C@H](CSCC(=O)N[C@@H](CCCNC(=N)N)C(=O)N2)NC(=O)[C@H]([C@@H](C)CC)NC(=O)[C@H](CC(=O)O)NC1=O [compound 70, Disulfide- RCS{Nle}DICRS LDVCWQ] ({CH2CO}-RCS[Nle]DICRSL[dD]VCWQ-NH2; disulfide 2-13; thioether N-7)	19.7	
CCCC[C@@H]1NC(=O)[C@H](CO)NC(=O)[C@@H]2CSSC[C@@H](C(=O)N[C@@H](Cc3c[nH]c4ccccc34)C(=O)N[C@@H](CCC(N)=O)C(N)=O)NC(=O)[C@H](C(C)C)NC(=O)[C@H](CC(=O)O)NC(=O)[C@H](CC(C)C)NC(=O)[C@H](CO)NC(=O)[C@H](CCCNC(=N)N)NC(=O)[C@H](CSCC(=O)N[C@@H](CCCNC(=N)N)C(=O)N2)NC(=O)[C@H]([C@@H](C)CC)NC(=O)[C@H](CC(=O)O)NC1=O [SEQ ID NO: 94] ({CH2CO}-RCS[Nle]DICRSLDVCWQ-NH2; disulfide 2-13; thioether N-7)		19.7
CC(C)C[C@@H]1NC(=O)[C@@H]2CCCN2C(=O)[C@@H](NC(=O)[C@H](CCCCN)NC(=O)[C@@H](N)CO)CSSC[C@@H](C(N)=O)CC(=O)[C@H](CCC(=O)O)NC(=O)[C@H](Cc2ccc(O)cc2)NC(=O)[C@@H]2CCCN2C(=O)[C@H](C(C)O)NC(=O)[C@H](CC(=O)O)NC1=O (stereo partly drawn) [compound 25] (H-SKCPLD[Thr(3ξ)]PY; linker 3-C via X9)	0.552	
CC[C@H](C)[C@@H]1NC(=O)[C@H](CC(=O)O)NC(=O)[C@H](CC(C)C)NC(=O)[C@@H]2CCCN2C(=O)[C@@H]2CSCc3cc(cc(c3)OCCCCCCO/N=C/C(=O)N[C@@H](CCCCN)C(=O)N2)CSC[C@@H](C(N)=O)NC(=O)[C@H](CCC(=O)O)NC(=O)[C@H](Cc2ccc(O)cc2)NC(=O)[C@@H]2CCCN2C1=O [compound 11] (KCPLDIPYEC-NH2; linker N-2-10 via X3)	0.198	
CSCC[C@@H]1NC(=O)[C@H]([C@@H](C)O)NC(=O)[C@H](C)NC(=O)CNC(=O)[C@@H]2CSCc3cc(cc(c3)OCCCCCCO/N=C/C(=O)N[C@@H](Cc3ccccc3)C(=O)N2)CSC[C@@H](C(N)=O)NC(=O)[C@H](CCCCN)NC(=O)[C@H](CCCCN)NC1=O [compound 100, TSL6- SFCGATMKKC] (FCGATMKKC-NH2; linker N-2-9 via X3)	162	
CCCC[C@@H]1NC(=O)[C@H](CO)NC(=O)[C@H](CCCNC(=N)N)NC(=O)[C@@H]2CSCC(=O)N[C@@H](CCCNC(=N)N)C(=O)N[C@@H](CSSC[C@@H](C(=O)N[C@@H](Cc3c[nH]c4ccccc34)C(=O)N[C@@H](CCC(N)=O)C(N)=O)NC(=O)[C@H](CC(C)C)NC(=O)[C@@H](CC(=O)O)NC1=O)C(=O)N[C@@H](CO)C(=O)N[C@@H](CC(=O)O)C(=O)N[C@@H]([C@@H](C)O)C(=O)N[C@@H](CC(C)C)C(=O)N2 [compound 68] ({CH2CO}-RCSDTLCRS[Nle][dD]LCWQ-NH2; disulfide 2-13; thioether N-7)	15.9	
CC[C@H](C)[C@@H]1NC(=O)[C@H](CC(=O)O)NC(=O)[C@H](CCSC)NC(=O)[C@@H]2CCCN2C(=O)[C@@H]2CSCc3cc(cc(c3)OCCCCCCO/N=C/C(=O)N[C@@H](CCC(N)=O)C(=O)N2)CSC[C@@H](C(N)=O)NC(=O)[C@H]([C@@H](C)O)NC(=O)[C@@H]2CCCN2C1=O [compound 40, TSL6- SQCPMDIPTC] (QCPMDIPTC-NH2; linker N-2-9 via X3)	1.27	
CSCC[C@@H]1NC(=O)[C@@H]2CCCN2C(=O)[C@@H]2CSCc3cc(cc(c3)OCCCCCCO/N=C/C(=O)N[C@@H](C)C(=O)N2)CSC[C@@H](C(N)=O)NC(=O)[C@H](CCC(=O)O)NC(=O)CNC(=O)[C@H](Cc2c[nH]c3ccccc23)NC(=O)[C@H](C(C)C)NC(=O)[C@H](CC(=O)O)NC1=O [compound 75, TSL6- SACPMDVWGEC] (ACPMDVWGEC-NH2; linker N-2-10 via X3)	31.3	
CCCC[C@@H]1NC(=O)[C@@H]2CCCN2C(=O)[C@@H]2CSCc3cc(cc(c3)OCCCCCCC(=O)NCC(=O)N[C@@H](CCCNC(=N)N)C(=O)N2)CSC[C@@H](C(=O)O)NC(=O)[C@H](CCC(=O)O)NC(=O)[C@H](CCC(N)=O)NC(=O)[C@H](Cc2c[nH]c3ccccc23)NC(=O)[C@H]([C@@H](C)CC)NC(=O)[C@H](CC(=O)O)NC1=O [SEQ ID NO: 147] (GRCP[Nle]DIWQEC-OH; linker N-3-11 via X5; C-terminus assumed)		0.075
CC[C@H](C)[C@@H]1NC(=O)[C@H](CC(=O)O)NC(=O)[C@H](CC(C)C)NC(=O)[C@@H]2CSCc3cc(cc(c3)OCCCCCCO/N=C/C(=O)N[C@@H](CCCNC(=N)N)C(=O)N2)CSC[C@@H](C(N)=O)NC(=O)[C@H](CC(=O)O)NC(=O)[C@H](Cc2ccc(O)cc2)NC(=O)[C@H]([C@@H](C)O)NC1=O [compound 92, TSL6- SRCLDIMYDC] (RCLDITYDC-NH2; linker N-2-9 via X3)	100	
CC[C@H](C)[C@@H]1NC(=O)[C@H](CCCNC(=N)N)NC(=O)CNC(=O)[C@H](Cc2ccc(O)cc2)NC(=O)[C@H](Cc2c[nH]c3ccccc23)NC(=O)[C@H](Cc2c[nH]cn2)NC(=O)[C@@H]2CSCc3cc(cc(c3)OCCCCCCO/N=C/C(=O)N[C@@H](CC(N)=O)C(=O)N2)CSC[C@@H](C(N)=O)NC1=O [compound 83, TSL6- SNCHWYGRIC] (NCHWYGRIC-NH2; linker N-2-9 via X3)	63.8	
C[C@@H]1NC(=O)[C@@H]2CCCN2C(=O)[C@@H]2CSCc3cc(cc(c3)OCCCCCCON=CC(=O)N[C@@H](CCCCN)C(=O)N2)CSC[C@@H](C(=O)O)NC(=O)[C@H](CCC(=O)O)NC(=O)[C@H](Cc2ccc(O)cc2)NC(=O)[C@@H]2CCCN2C(=O)[C@H]([C@@H](C)O)NC(=O)[C@H](CC(=O)O)NC1=O [SEQ ID NO: 71] (KCPADTPYEC-OH; linker N-2-10 via X1)		> 500
COCC[C@@H]1NC(=O)[C@@H]2CCCN2C(=O)[C@@H]2CSCc3cc(cc(c3)OCCCCCCC(=O)NCC(=O)N[C@@H](CCC(N)=O)C(=O)N2)CSC[C@@H](C(=O)O)NC(=O)[C@H](CCC(=O)O)NC(=O)[C@H](CCC(N)=O)NC(=O)[C@@H]2CCCN2C(=O)[C@H](CC(C)(C)C)NC(=O)[C@H](CC(=O)O)NC1=O [SEQ ID NO: 89] (GQCP[hSer](Me)D[tBuAla]PQEC-OH; linker N-3-11 via X5; C-terminus assumed)		55.9
CC(C)C[C@@H]1NC(=O)[C@H]([C@@H](C)O)NC(=O)[C@H](CC(=O)O)NC(=O)[C@H](CO)NC(=O)[C@H](CCCNC(=N)N)N(C)C(=O)c2ccccc2CSC(C)(C)[C@@H](C(=O)N[C@@H](Cc2c[nH]c3ccccc23)C(=O)N[C@H](CCC(=O)O)C(N)=O)NC1=O [compound 1]	0.003	
